# Source: ChEMBL document CHEMBL5724914, “Linking interpersonal differences in gut microbiota composition and drug biotransformation activity” (2024)
# Legend:
# [1] = human gut metagenome, 24 h, 2 µM
# [2] = (§1) The drug is tested on Z-026 corresponding to metagenome with ENA study accession number: PRJEB37062 and ENA sample accession number: ERS12561825 for biotransformation under anaerobic condition. The drug concentrations were measured over 9 timepoints collected between 0 and 24 hours of incubation by liquid-chromatography-coupled mass spectrometry (LC–MS); conditions: 2 µM
# [3] = human gut metagenome, 24 h, 2 µM; remark: listed apart in the source
# [4] = as §1, with “Z-027” for “Z-026”, “ERS12561826” for “ERS12561825”; conditions: 2 µM
# [5] = human gut metagenome, 24 h, 2 µM; remark: listed apart in the source
# [6] = (§2) The drug is tested on Z-009 corresponding to pig gut metagenome with ENA study accession number: PRJEB37062 and ENA sample accession number: ERS12561809 for biotransformation under anaerobic condition. The drug concentrations were measured over 9 timepoints collected between 0 and 24 hours of incubation by liquid-chromatography-coupled mass spectrometry (LC–MS); conditions: 2 µM
# [7] = human gut metagenome, 24 h, 2 µM; remark: listed apart in the source
# [8] = as §2, with “Z-020” for “Z-009”, “rabbit” for “pig”, “ERS12561819” for “ERS12561809”; conditions: 2 µM
# [9] = human gut metagenome, 24 h, 2 µM; remark: listed apart in the source
# Further: call rule not given here.
Structure (SMILES),Bacterial Biotransformation [1],Bacterial Biotransformation [2],Bacterial Biotransformation [3],Bacterial Biotransformation [4],Bacterial Biotransformation [5],Bacterial Biotransformation [6],Bacterial Biotransformation [7],Bacterial Biotransformation [8],Bacterial Biotransformation [9]
CSc1ccc2c(c1)C(N1CCN(C)CC1)Cc1ccccc1S2.O=C(O)/C=C\C(=O)O (stereo not given),Compound NOT metabolized,Compound NOT metabolized,Compound NOT metabolized,Compound metabolized,Compound NOT metabolized,Compound metabolized,–,–,–
CCN(CC)C(=O)C1(c2ccccc2)CC1CN (stereo not given),Compound NOT metabolized,Compound NOT metabolized,Compound NOT metabolized,Compound NOT metabolized,Compound NOT metabolized,Compound NOT metabolized,Compound NOT metabolized,Compound NOT metabolized,Compound NOT metabolized
COc1ccc(/C=C/C(=O)Nc2ccccc2C(=O)O)cc1OC,Compound NOT metabolized,Compound metabolized,–,Compound metabolized,Compound NOT metabolized,Compound metabolized,Compound NOT metabolized,Compound metabolized,Compound NOT metabolized
Nc1nc(NC2CC2)c2ncn([C@H]3C=C[C@@H](CO)C3)c2n1.Nc1nc(NC2CC2)c2ncn([C@H]3C=C[C@@H](CO)C3)c2n1.O=S(=O)(O)O [ABACAVIR SULFATE],Compound NOT metabolized,Compound NOT metabolized,Compound metabolized,Compound NOT metabolized,Compound metabolized,Compound NOT metabolized,Compound metabolized,Compound NOT metabolized,Compound metabolized
CCN(CC)CCNC(=O)c1ccc(NC(C)=O)cc1 [ACECAINIDE],Compound NOT metabolized,Compound NOT metabolized,Compound metabolized,Compound NOT metabolized,Compound NOT metabolized,Compound NOT metabolized,Compound metabolized,Compound NOT metabolized,Compound NOT metabolized
O=C1CN2Cc3c(ccc(Cl)c3Cl)N=C2N1 [ANAGRELIDE],Compound metabolized,Compound NOT metabolized,Compound metabolized,Compound NOT metabolized,Compound NOT metabolized,Compound NOT metabolized,Compound NOT metabolized,Compound NOT metabolized,Compound metabolized
CN(C)C(=O)Oc1cc(OC(=O)N(C)C)cc(C(O)CNC(C)(C)C)c1 (stereo not given) [BAMBUTEROL],Compound metabolized,Compound NOT metabolized,Compound NOT metabolized,Compound NOT metabolized,Compound NOT metabolized,Compound metabolized,Compound metabolized,Compound NOT metabolized,Compound metabolized
CCc1oc2ccccc2c1C(=O)c1cc(Br)c(O)c(Br)c1 [BENZBROMARONE],Compound metabolized,Compound NOT metabolized,Compound metabolized,Compound NOT metabolized,Compound metabolized,Compound NOT metabolized,Compound metabolized,Compound metabolized,Compound metabolized
CC(C)C[C@H]1C(=O)N2CCC[C@H]2[C@]2(O)O[C@](NC(=O)[C@@H]3C=C4c5cccc6[nH]c(Br)c(c56)C[C@H]4N(C)C3)(C(C)C)C(=O)N12.CS(=O)(=O)O [BROMOCRIPTINE MESYLATE],Compound metabolized,Compound metabolized,Compound metabolized,Compound metabolized,Compound NOT metabolized,Compound metabolized,Compound metabolized,–,Compound metabolized
CC(NC(C)(C)C)C(=O)c1cccc(Cl)c1 (stereo not given) [BUPROPION],Compound NOT metabolized,Compound NOT metabolized,Compound metabolized,Compound NOT metabolized,Compound NOT metabolized,Compound NOT metabolized,Compound NOT metabolized,Compound NOT metabolized,Compound NOT metabolized
O=C1CC2(CCCC2)CC(=O)N1CCCCN1CCN(c2ncccn2)CC1 [BUSPIRONE],Compound NOT metabolized,Compound NOT metabolized,Compound metabolized,Compound NOT metabolized,Compound metabolized,Compound NOT metabolized,Compound metabolized,Compound NOT metabolized,Compound metabolized
CC(=O)Nc1ccc(OC(C)=O)cc1 [DIACETAMATE],Compound metabolized,Compound metabolized,–,Compound metabolized,Compound metabolized,Compound metabolized,Compound metabolized,Compound metabolized,Compound metabolized
COc1cc2nc(N3CCN(C(=O)C4COc5ccccc5O4)CC3)nc(N)c2cc1OC.CS(=O)(=O)O (stereo not given) [DOXAZOSIN MESYLATE],Compound NOT metabolized,Compound metabolized,–,Compound NOT metabolized,Compound metabolized,Compound NOT metabolized,Compound NOT metabolized,Compound NOT metabolized,Compound metabolized
CCOC(=O)[C@H](CCc1ccccc1)N[C@@H](C)C(=O)N1CCC[C@H]1C(=O)O.O=C(O)/C=C\C(=O)O [ENALAPRIL MALEATE],Compound NOT metabolized,Compound NOT metabolized,Compound NOT metabolized,Compound NOT metabolized,Compound NOT metabolized,Compound metabolized,Compound NOT metabolized,–,Compound NOT metabolized
CN1[C@@H]2CC[C@H]1C[C@@H](OC(=O)[C@H](CO)c1ccccc1)C2 [HYOSCYAMINE],–,Compound NOT metabolized,–,Compound NOT metabolized,Compound NOT metabolized,Compound metabolized,Compound metabolized,–,Compound metabolized
COC1=C(OC)C(=O)C(CCCCCCCCCCO)=C(C)C1=O [IDEBENONE],Compound metabolized,Compound NOT metabolized,–,Compound NOT metabolized,Compound NOT metabolized,Compound metabolized,Compound NOT metabolized,Compound metabolized,Compound metabolized
C#C[C@]1(OC(C)=O)CC[C@H]2[C@@H]3CCC4=CC(=O)CC[C@@H]4[C@H]3CC[C@@]21C [NORETHINDRONE ACETATE],Compound metabolized,–,Compound metabolized,Compound metabolized,Compound metabolized,Compound metabolized,–,Compound metabolized,–
CC(=O)O[C@H]1C(=O)[C@@]2(C)[C@H]([C@H](OC(=O)c3ccccc3)[C@]3(O)C[C@H](OC(=O)[C@H](O)[C@@H](NC(=O)c4ccccc4)c4ccccc4)C(C)=C1C3(C)C)[C@]1(OC(C)=O)CO[C@@H]1C[C@@H]2O [PACLITAXEL],Compound NOT metabolized,Compound metabolized,Compound metabolized,Compound NOT metabolized,Compound NOT metabolized,Compound metabolized,Compound NOT metabolized,Compound metabolized,–
CCCCCNC(=N)N/N=C/c1c[nH]c2ccc(OC)cc12.O=C(O)/C=C\C(=O)O [TEGASEROD MALEATE],Compound NOT metabolized,Compound NOT metabolized,Compound NOT metabolized,Compound NOT metabolized,Compound NOT metabolized,Compound metabolized,–,–,–
COc1cc(C(=O)NCc2ccc(OCCN(C)C)cc2)cc(OC)c1OC [TRIMETHOBENZAMIDE],Compound NOT metabolized,Compound NOT metabolized,–,Compound NOT metabolized,Compound NOT metabolized,Compound metabolized,Compound NOT metabolized,Compound NOT metabolized,Compound NOT metabolized
